According to PubChem BioAssay AID2742 (NMMLSC, 2010):
“And” between values parts separate entries of the source, which are not always exact repeats. Identical values can stand only once. The source made the active and inactive calls.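 Rule for the calls: active = fitted half-maximal concentration for changing background-corrected GFP signal at or below a set limit; inactive = the rest.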

Experiment: modulators of MEP2-GFP levels in yeast, dose response, S. cerevisiae, flow cytometry GFP, MLPCN hits (AID 2742);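 note: GFP tag reports level of MEP2 protein as a downstream target of TOR signalling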
Details: S. cerevisiae MEP2-GFP strain, flow cytometry fluorescence, 3 h; at 33 µM (top of the series)

Structure (SMILES) | GFP fluorescence (kMESF), higher = increase
CSC1=NS(=O)(=O)c2c(C)nn(C)c2S1 | 4.13 kMESF (inactive)
COc1ccc(-c2cc3cc(C(=O)O)ccn3c2C(=O)c2ccccc2)cc1 | 3.23 kMESF (inactive)
O=C1ON=C(c2ccccc2)/C1=C\c1ccco1 | 4.59 kMESF (inactive)
O=C(COc1c(Br)cc(Br)c2cccnc12)N1CCc2ccccc2C1 | 4.11 kMESF (inactive)
CCCOc1ccc(C(=O)NNC(=S)NC(=O)c2ccco2)cc1 | 4.58 kMESF (inactive)
O=C(O)/C=C/C(=O)c1ccc2c(c1)CCc1ccccc1-2 | 4.6 kMESF (inactive)
CCOc1ccc(C(Nc2cccnc2)c2cc(Cl)c3cccnc3c2O)cc1 (configuration not stated) | 4.24 kMESF (inactive)
O=C1C=C(c2ccc(Cl)cc2)C(=O)N1Nc1ccccc1 | 5.31 kMESF (inactive)
COc1ccccc1NC1=C(Cl)C(=O)N(c2ccccc2)C1=O | 2.07 kMESF (inactive)
COC(=O)CCS(=O)(=O)c1nc(-c2ccccc2)cc(C(F)(F)F)n1 | 6.95 kMESF (inactive)
CCOc1ccc(N/N=C(/C#N)C(N)=O)cc1 | 2.43 kMESF (inactive)
C=C1C(O)[C@@H]2O[C@]3(CC[C@H](/C=C/C(C)[C@@H]4CC(C)=CC5(O[C@H](C[C@@](C)(O)C(=O)O)CCC5O)O4)O3)CC[C@H]2O[C@@H]1C(O)CC(C)[C@H]1OC2(CCCCO2)CCC1C (some centres not stated) | 1.77 kMESF (inactive)
Cc1cc(NC(c2ccc(Cl)cc2)c2ccc3cccnc3c2O)no1 (configuration not stated) | 4.11 kMESF (inactive)
Cc1ccccc1N=Nc1ccc(O)c2ncccc12 | 3.51 kMESF (inactive)
COc1ccc(N2CCN(C(=O)c3ccccc3)CC2)c([N+](=O)[O-])c1 | 3.33 kMESF (inactive)
O=S(=O)(/N=C(/Sc1ccccc1)c1ccccc1)c1ccccc1 | 4.43 kMESF (inactive)

Structure (SMILES) | GFP fluorescence (kMESF), higher = increase
O=[N+]([O-])c1cc(CN2CCN(c3ccccc3)CC2)c(O)c2ncccc12 | 4.24 kMESF (inactive)
O=[N+]([O-])c1cc(O)c2ncccc2c1 | 5.96 kMESF (inactive)
CC(=O)OC[C@]12CC[C@H]3[C@@](C)(CC[C@H]4C(C)(C)CCC[C@]34C)[C@@H]1C[C@H](C1=CC(=O)O[C@@H]1OC(C)=O)O2 | 1.79 kMESF (inactive)
Cc1ccc(/C(N)=N/OC(=O)c2ccc(F)cc2)cc1 | 2.2 kMESF (inactive)
Cc1ccc(O)c(N=Nc2nccs2)c1 | 2.87 kMESF (inactive)
Cc1cccc(N2C(=O)C(Cl)=C(Nc3c(C)n(C)n(-c4ccccc4)c3=O)C2=O)c1C | 3.31 kMESF (inactive)
CN(Cc1cnc2nc(N)nc(N)c2n1)c1ccc(C(=O)N[C@@H](CCC(=O)O)C(=O)O)cc1 | 2.67 kMESF (inactive) and 1.92 kMESF (inactive)
Cc1ccc(NC(=O)c2cc(N3C(=O)C=CC3=O)ccc2N2CCOCC2)cc1Cl | 1.96 kMESF (inactive)
COc1cccc(/C=N/Nc2ncc(C(F)(F)F)cc2Cl)c1O | 3.26 kMESF (inactive)
O=C1C(Cl)=C(Nc2ccccc2O)C(=O)N1c1ccccc1 | 4.11 kMESF (inactive)
Cc1[nH]c2ccccc2c1C(=O)COC(=O)c1ccc([N+](=O)[O-])s1 | 0.4 kMESF (inactive)
N/C(=N\OC(=O)c1cccc(Br)c1)c1ccccc1 | 2.6 kMESF (inactive)
Cc1ccc2c(c1)c(/C=C/c1cc[n+](C)cc1)c(C)n2C | 9.93 kMESF (inactive)
Cc1ccc(NC(=O)c2ccc(Cl)c(N3C(=O)C=CC3=O)c2)cc1 | 5.91 kMESF (inactive)
COc1cc(/C=C2\C(=O)ON=C2c2ccccc2)cc(OC)c1OC | 3.21 kMESF (inactive)
COc1ccc(C=C2C(=O)c3ccccc3C2=O)cc1O | 2.67 kMESF (inactive)
